# Reference: patent US20170202878A1, “Method for Preventing or Treating a Protein Aggregation Disease” (Queen Mary University of London, priority 2014, published 2017)
# Assays:
# [1] = system: RNAse-aggregated proteins from human neurons; assay: RNA-mediated re-folding of RNAse-aggregated proteins; format: biochemical; conditions: for protein solubilising effect of G-quadruple-forming and non-forming oligos: RNAse aggregated proteins from human neurons, aggregated proteins quantified
# Protocol: Proteins were isolated from neuronal lysate by RNAse A/T1 treatment and centrifugation. Pelleted proteins were dissolved in 50 μl of denaturation buffer (20 mM Tris-HCl pH 7.5, 6 M Guanidine hydrochloride, 1% Triton X-100, 20 mM DTT) and sonicated for 5 min at room temperature. […] Dialysis was performed against 600 ml PBS buffer at 4° C. overnight after which the PBS was replaced with fresh PBS (400 ml) and the container placed in a water bath and kept at 37° C. for 1 h. The dialysed samples were transferred to 1.5 ml tubes and the volume adjusted to 100-200 μl with PBS. 7.5-10% of this was taken as Input. Precipitated proteins (Pel 1) were pelleted by centrifugation at 21.000×g for 10 min at +4° C., washed twice in RIPA buffer and processed for SDS-PAGE as before. 7.5-10% of the supernatants was saved (Sup 1) and the remaining volume was either divided into two new tubes supplemented with 0.5 μl vehicle or 0.5 μl RNAse A/T1 or the whole sample placed in one tube and treated with 0.5 μl RNAse A/T1. All samples were incubated at 37° C. for one hour and centrifuged as before. Pelleted proteins (P2) were washed as before and dissolved in SDS/Urea and sonicated. Equal volumes of each fraction were separated on SDS-PAGE gels and then either stained with coomassie or transferred to membranes for western blot analysis. RNA was isolated from cell lysates and purified ribosomes with Trizol LS (Life Technologies) according to the manufacturer's instructions. Ribosomes were isolated from Jurkat T-cells. RNA depleted for rRNA was isolated from the upper two thirds of the supernatant (after pelleting of ribosomes and five times dilution in water) with acid phenol (Life Technologies) followed by EtOH precipitation. RNA from intact cells was isolated with Isol-RNA Lysis Reagent (5 PRIME), according to the manufacturer's instructions. All RNA samples were dissolved in TE (10 mM Tris-HCl pH 8.0, 1 mM EDTA). RNA was analysed by 1.5% agarose or 6% PAGE/8M Urea gel electrophoresis and visualised with Ethidium Bromide. […]
# [2] = system: cell or tissue lysate treated with RNAse A/T1; assay: Sodium orthovanadate: impact on RNAse-induced protein aggregation
# Protocol: Cell or tissue lysate was prepared as described above. Lysate (200 μg at 2 μg/ul) is then treated with a mixture of RNAse A and T1 (A/T1), and incubated with increasing concentrations of Sodium Orthovanadate for one hour at 37° C. Aggregated proteins were isolated by centrifugation (21.000×g) at 4° C. for 20 min, washed twice in 500 μl RIPA buffer and then dissolved in 12 μl 6M Guanidine Hydrochloride, 20 mM Tris-HCl pH 7.5 by sonication for 5 min at room temperature. The amount of protein in 5 μl of this solution was then determined by using the BCA Kit (Thermo Scientific) according to the manufacturer's protocol. Data were expressed in arbitrary units (AU) as a fraction of the amount aggregated proteins (P1)/the amount of protein in the Input, and represent mean±s.d, n=2. […] The experiment was repeated with 50 μM SO and increasing concentrations of RNAse A/T1.
# [3] = system: aggregated proteins from Jurkat T-cells; assay: Two-step refolding of proteins with small molecules or synthetic DNA/RNA; conditions: increasing concentrations
# lysate from mouse cortex = assay: Ribonucleoside vanadyl: impact on protein aggregation; format: biochemical; conditions: 10 mM, 1 hour at 37° C., coomassie SDS-PAGE
# [4] = system: Huntingtin (HTT), FUS and TARDBP in Jurkat cell lysates; format: biochemical, human; conditions: 15 min treatment, then 1 hour at 37° C.
# [5] = system: amyloid-β, tau (MAPT), α-synuclein (SNCA), TARDBP (TDP-43), FUS, HTT, PrP, HNRNPA1, actin, NF-H in human neuronal lysates
molecule,measurement,setting,value
"18S 1129-69: predicted G4-forming ssDNA oligo derived from human 18S ribosomal RNA, 40 nt",protein solubilising effect of G-quadruple-forming and non-forming oligos,[1],can solubilise the proteins
[Na+].[Na+].[Na+].[O]=[V]([O-])([O-])[O-] [Sodium orthovanadate],background protein aggregation in lysate,[2],prevents any background protein aggregation
same,inhibition of RNAse mediated protein aggregation,"[2]; added to cell or tissue lysate together with RNAses, 1 hour at 37° C., e.g. TDP-43 and huntingtin",completely inhibit aggregation of the proteins
same,prevention of protein aggregation after refolding (BCA assay),[3],can mimic RNA/DNA in preventing protein aggregation after refolding
"No 4G 1129-69: oligo with same nucleotides as 18S 1129 in an order not predicted to form G-quadruples (DNA TTAAGGGCATCTGATGCGGCGCGTGACGCGGCGCTAAGTG; DNA, backbone not given here)",protein solubilising effect of G-quadruple-forming and non-forming oligos,[1],much less efficient
Ribonucleoside vanadyl,protein aggregation in lysate in the absence of exogenous RNAse,lysate from mouse cortex,causes substantial protein aggregation
same,protein aggregation in lysate in the absence of exogenous RNAse,lysate from mouse cortex; listed as Riobonucleoside vanadyl (VA),causes protein aggregation
heparin,re-folding / solubilisation of RNAse-aggregated proteins (global protein profile),"[1]; denatured in 6M guanidine hydrochloride, dialysed, same amount in weight of nucleic acid or heparin",neither yeast tRNA nor heparin could substitute for the solubilising capacity of total human RNA
"immobilised RNAse A: biotinylated RNAse A coupled to magnetic strepavidine beads (protein, UniProt P61823 27-150, looked up, biotinylated, coupled to streptavidin magnetic beads) Ribonuclease pancreatic: KETAAAKFERQHMDSSTSAASSSNYCNQMMKSRNLTKDRCKPVNTFVHESLADVQAVCSQKNVACKNGQTNCYQSYSTMSITDCRETGSSKYPNCAYKTTQANKHIIVACEGNPYVPVHFDASV","aggregation of HTT, FUS and TARDBP after mixing 10% treated lysate with non-treated lysate (western blot)",[4],increase in aggregation
"RNase A: ribonuclease cleaving single-stranded RNA after C and U, from Sigma (protein) KETAAAKFERQHMDSSTSAASSSNYCNQMMKSRNLTKDRCKPVNTFVHESLADVQAVCSQKNVACKNGQTNCYQSYSTMSITDCRETGSSKYPNCAYKTTQANKHIIVACEGNPYVPVHFDASV",proteins most efficiently precipitated by the RNase (western blot),[5],"TARDBP, HTT and PrP"
"RNase T1: ribonuclease cleaving single-stranded RNA after G (protein, UniProt P00651 27-130, looked up) Guanyl-specific ribonuclease …: ACDYTCGSNCYSSSDVSTAQAAGYQLHEDGETVGSNSYPHKYNNYEGFDFSVSSPYYEWPILSSGDVYSGGSPGADRVVFNENNQLAGVITHTGASGNNFVECT",proteins most efficiently precipitated by the RNase (western blot),[5],FUS
